What was measured:
Details in all cases: treatment: drug + dasatinib (fixed dose, not stated); 5 days
[1] = system: A498; assay: minimum viability across doses, drug + dasatinib, relative to DMSO (fraction); higher = less growth inhibition
Experimental: (§1)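 Primary HTS combination arm: 8 RCC cell lines treated with 8 doses (up to 10 uM) of each library drug plus a fixed dose of dasatinib (dose not stated) for 5 days; viability read by CellTiter-Glo and normalised to DMSO. GI50 was fitted with XLfit, AUC is the area under the dose-response curve, and minimum viability is the lowest fraction of DMSO viability across doses.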

[2] = system: SN12C; assay: as above
Experimental: as §1

[3] = system: 786-O; assay: as above
Experimental: as §1

[4] = system: ACHN; assay: as above
Experimental: as §1

[5] = system: CAKI-1; assay: as above
Experimental: as §1

[6] = system: UO-31; assay: as above
Experimental: as §1

[7] = system: 769-P; assay: as above
Experimental: as §1

[8] = system: TK-10; assay: as above
Experimental: as §1

[9] = system: A498; assay: AUC of dose-response viability curve, drug + dasatinib, normalised to DMSO (arbitrary (AUC of normalised viability)); higher = less growth inhibition
Experimental: as §1

[10] = system: SN12C; assay: as above
Experimental: as §1

[11] = system: 786-O; assay: as above
Experimental: as §1

[12] = system: ACHN; assay: as above
Experimental: as §1

[13] = system: CAKI-1; assay: as above
Experimental: as §1

[14] = system: UO-31; assay: as above
Experimental: as §1

[15] = system: 769-P; assay: as above
Experimental: as §1

[16] = system: TK-10; assay: as above
Experimental: as §1

[17] = system: A498; assay: GI50 of drug in presence of dasatinib; higher = less potent
Experimental: as §1

[18] = system: SN12C; assay: as above
Experimental: as §1

[19] = system: 786-O; assay: as above
Experimental: as §1

[20] = system: ACHN; assay: as above
Experimental: as §1

[21] = system: CAKI-1; assay: as above
Experimental: as §1

[22] = system: UO-31; assay: as above
Experimental: as §1

[23] = system: 769-P; assay: as above
Experimental: as §1

[24] = system: TK-10; assay: as above
Experimental: as §1

GI50 of drug [19]	GI50 of drug [20]	SMILES	minimum viability across doses [1]	minimum viability across doses [2]	minimum viability across doses [3]	minimum viability across doses [4]	minimum viability across doses [5]	minimum viability across doses [6]	minimum viability across doses [7]	minimum viability across doses [8]	AUC of dose-response viability curve [9]	AUC of dose-response viability curve [10]	AUC of dose-response viability curve [11]	AUC of dose-response viability curve [12]	AUC of dose-response viability curve [13]	AUC of dose-response viability curve [14]	AUC of dose-response viability curve [15]	AUC of dose-response viability curve [16]	GI50 of drug [17]	GI50 of drug [18]	GI50 of drug [21]	GI50 of drug [22]	GI50 of drug [23]	GI50 of drug [24]
5.3 nM	4.38 nM	COc1ccc(-c2ccc3ncc4c(c3c2)n(-c2ccc(N3CCNCC3)c(C(F)(F)F)c2)c(=O)n4C)cn1.O=C(O)/C=C\C(=O)O [NVP-BGT226] + Cc1nc(Nc2ncc(C(=O)Nc3c(C)cccc3Cl)s2)cc(N2CCN(CCO)CC2)n1 [dasatinib]	0.0127	0.00253	0.00462	0.00153	0.00249	0.0107	0.00834	0.00345	0.972	0.601	0.402	0.453	0.631	0.779	0.87	0.725	20 nM	6.06 nM	10.1 nM	14.2 nM	15.9 nM	12.2 nM
491 nM	511 nM	Cc1ccc(C(=O)Nc2cccc(C(F)(F)F)c2)cc1Nc1nc(-c2cccnc2)nc2c1cnn2C [NVP-BHG712] + Cc1nc(Nc2ncc(C(=O)Nc3c(C)cccc3Cl)s2)cc(N2CCN(CCO)CC2)n1 [dasatinib]	0.0233	0.0536	0.00229	0.126	0.026	0.00794	0.0398	0.0343	3.17	2.37	1.66	1.8	1.87	3.61	2.16	2.1	4420 nM	6860 nM	506 nM	3110 nM	1640 nM	1070 nM
44.1 nM	380 nM	Cl.Cl.Fc1cc(-c2cccc3ncc(-c4cnn(C5CCNCC5)c4)nc23)cc(F)c1CN1CCOCC1 [NVP-BSK805] + Cc1nc(Nc2ncc(C(=O)Nc3c(C)cccc3Cl)s2)cc(N2CCN(CCO)CC2)n1 [dasatinib]	0.0371	0.127	0.00448	0.0139	0.0163	0.0214	0.37	0.108	3.09	2.15	1.85	1.64	1.9	3.35	2.29	2.08	5130 nM	2430 nM	962 nM	2940 nM	3940 nM	1420 nM
361 nM	15.4 nM	Cn1cc(-c2ccc3ncc(Cc4ccc5ncccc5c4)n3n2)cn1 [NVP-BVU972] + Cc1nc(Nc2ncc(C(=O)Nc3c(C)cccc3Cl)s2)cc(N2CCN(CCO)CC2)n1 [dasatinib]	0.0158	0.0116	0.00818	0.0103	0.0417	0.0147	0.0263	0.119	3.44	2.12	1.79	1.28	1.71	3.81	2.06	2.03	1440 nM	1900 nM	303 nM	2040 nM	1150 nM	836 nM

Reference: the supplement of paper PMC8149375
